Measurements reported in patent US20090069398A1, “Pyrazolyl Carboxamides” (Bayer CropScience AG, priority 2005, published 2009).

Key:
[1] = log P determination by HPLC on reversed-phase column (EEC Directive 79/831 Annex V.A8); format: physicochemical; conditions: reversed-phase HPLC column (C 18); pH 2.3; HPLC reversed-phase C 18, 43° C.; 0.1% aqueous phosphoric acid/acetonitrile
Description: The log P values given in the Tables and Preparation Examples above are determined in accordance with EEC Directive 79/831 Annex V.A8 by HPLC (High Performance Liquid Chromatography) on reversed-phase column (C 18). Temperature: 43° C. The determination is carried out in the acidic range at pH 2.3 using the mobile phases 0.1% aqueous phosphoric acid and acetonitrile; linear gradient from 10% acetonitrile to 90% acetonitrile. Calibration is carried out using unbranched alkan-2-ones (having 3 to 16 carbon atoms) with known log P values (determination of the log P values by the retention times using linear interpolation between two successive alkanones).

[2] = test system: Botrytis cinerea; assay: Botrytis test (cucumber)/protective; format: in vivo; conditions: protective, application rate 500 ppm, evaluation 5-6 days after inoculation
Description: (§1) [table] To produce a suitable preparation of active compound, 1 part by weight of active compound is mixed with the stated amounts of solvent and emulsifier, and the concentrate is diluted with water to the desired concentration. To test for protective activity, young cucumber plants are sprayed with the active compound preparation at the stated application rate. 1 day after the treatment, the plants are inoculated with a spore suspension of Botrytis cinerea and then remain at 100% relative humidity and 20° C. for 48 h. The plants then remain at 96% relative atmospheric humidity and a temperature of 13° C. Evaluation is carried out 5-6 days after the inoculation. 0% means an efficacy which corresponds to that of the control, whereas an efficacy of 100% means that no infection is observed.

[3] = test system: Alternaria solani; assay: Alternaria test (tomato)/protective; format: in vivo; conditions: protective, application rate 500 ppm, evaluation 7 days after inoculation
Description: as §1, with “To test for protective activity, young cucumber plants are sprayed with the active compound preparation at the stated application rate.” left out, “Alternaria solani” for “Botrytis cinerea”, “24” for “48”, “20°” for “13°”, “7” for “5-6”

[4] = test system: Puccinia recondita; assay: Puccinia test (wheat)/protective; format: in vivo; conditions: protective, application rate 1000 ppm, evaluation 10 days after inoculation
Description: (§2) [table] To produce a suitable preparation of active compound, 1 part by weight of active compound is mixed with the stated amounts of solvent and emulsifier, and the concentrate is diluted with water to the desired concentration. To test for protective activity, young plants are sprayed with the active compound preparation at the stated application rate. After the spray coating has dried on, the plants are sprayed with a conidia suspension of Puccinia recondita. The plants remain in an incubation cabin at 20° C. and 100% relative atmospheric humidity for 48 hours. The plants are then placed in a greenhouse at a temperature of about 20° C. and a relative atmospheric humidity of 80% to promote the development of rust pustules. Evaluation is carried out 10 days after the inoculation. 0% means an efficacy which corresponds to that of the control, whereas an efficacy of 100% means that no infection is observed.

[5] = test system: Pyrenophora teres; assay: Pyrenophora teres test (barley)/protective; format: in vivo; conditions: protective, application rate 1000 ppm, evaluation 8 days after inoculation
Description: as §2, with “of Pyrenophora teres.” for “of Puccinia recondita.”, “of 80%.” for “of 80% to promote the development of rust pustules.”, “out 8” for “out 10”

## CCn1cc(C(=O)Nc2ccc(F)cc2-c2ccc(Cl)c(Cl)c2)c(C(F)F)n1 [Example 1, N-(3′,4′-dichloro-5-fluorobiphenyl-2-yl)-3-(difluoromethyl)-1-ethyl-1H-pyrazole-4-carboxamide]
[1]
  chromatographic logP: 3.61

## CCn1cc(C(=O)Nc2ccc(F)cc2-c2ccc(Cl)c(F)c2)c(C(F)F)n1 [Example 2, N-(4′-chloro-3′,5-difluorobiphenyl-2-yl)-3-(difluoromethyl)-1-ethyl-1H-pyrazole-4-carboxamide]
[1]
  chromatographic logP: 3.34

## Cn1nc(C(C)(C)C)c(C(=O)Nc2ccc(F)cc2-c2ccc(Cl)c(Cl)c2)c1Cl [Example 5]
[1]
  chromatographic logP: 4.53

## Cn1nc(C(C)(C)C)c(C(=O)Nc2ccc(F)cc2-c2ccc(Cl)c(Cl)c2)c1Cl [drawing 18]
[2]
  Efficacy in %: 70%

## CCn1cc(C(=O)Nc2ccc(F)cc2-c2ccc(Cl)c(F)c2)c(C(F)F)n1 [drawing 20]
[3]
  Efficacy in %: 95%

## CCn1cc(C(=O)Nc2ccc(F)cc2-c2ccc(Cl)c(Cl)c2)c(C(F)F)n1 [drawing 16]
[4]
  Efficacy in %: 95%

## CCn1cc(C(=O)Nc2ccc(F)cc2-c2ccc(Cl)c(Cl)c2)c(C(F)F)n1 [drawing 19]
[3]
  Efficacy in %: 95%

## CCn1cc(C(=O)Nc2ccc(F)cc2-c2ccc(Cl)c(Cl)c2)c(C(F)F)n1 [drawing 17]
[5]
  Efficacy in %: 100%
